Measurements as given in patent US20120172375A1, “COMPOUNDS AND METHODS OF PROMOTING OLIGODENDROCYTE PRECURSOR DIFFERENTIATION” (priority 2008, published 2012).
pEC50: −log10 of the molar value. Where “and” joins values, the source holds several entries; their conditions need not be identical. Equal values may be shown once. Entries after “also recorded” stand apart in the source; their conditions may differ. Read-outs that look alike come from different tables or passages of the source.

How the values were obtained:
[1] = test system: oligodendrocyte progenitor cells; experiment: Cell toxicity and viability (MTT, cell death); format: cell-based, mouse; details: for cell toxicity and viability: concentrations below 50 μM
Method: Differentiation induced by selected compounds was further validated by fluorescence microscopy in cells generated from our Plp-EGFP transgenic mouse. Increased fluorescence in treated oligodendrocyte progenitor was indicative of cell maturation and was again scored following the same scale. 13 positive compounds were identified after secondary screening (FIG. 1). These were analyzed for cell toxicity assays by MTT were yellow 3-(4,5-Dimethylthiazol-2-yl)-2,5-diphenyltetrazolium bromide, a tetrazole (MTT) is reduced to purple formazan in the mitochondria of living cells, showing a solution color change measurable by OD620-590 (Data not shown). Further oligodendrocyte progenitor maturation in response to selected compounds was assessed by induction of myelin protein expression as determined by immunocytochemistry and western blot.

[2] = test system: oligodendrocyte progenitor cells; experiment: Western blot for myelin proteins PLP/DM20 and CNPase in treated oligodendrocyte progenitor cells; format: cell-based, mouse; details: for induction of PLP/DM20 and CNPase expression at low concentrations: 0.01 and 0.1, 48 hrs (FIG. 2); for pEC50: Mus musculus, Oligodendrocyte progenitor cell
Method: Oligodendrocyte progenitors were generated from embryonic neural progenitors growing in cell aggregates known as neurospheres (Nphs). Nph were prepared from embryos at 14.5 days of gestation obtained from timed pregnant females of either wild type mice or the proteolipid protein-enhanced-green fluorescence protein (Plp-EGFP) transgenic mouse. In brief, after separation of meninges and cerebellum, cerebrum tissue was mechanically triturated with a 1 ml Gilson pipette until total tissue disaggregation was achieved, filtered through a 70 μm cell strainer (Fisher Scientific, Pittsburg, Pa.) and plated in 25 cm^2 plastic culture flasks (2 brains/flask). Nph proliferation media (NPM) was DMEM/F12, B27 neuronal supplement (Gibco, Baltimore, Md.) and 10 ng/ml EGF (Sigma, St. Louis, Mo.). After 48-72 hr, floating Nphs were passaged at a 1:3 ratio in the same medium every 3-4 days. To generate oligodendrocyte progenitors, single cells suspensions were obtained by chemical disgregation with the mouse NeuroCult dissociation kit (StemCell Technologies, Alberta, Canada). The single cell suspension was filtered through a 70 μm cell strainer and plated on 96-well poly-D-Lysine (PDL)-coated plates at a cell density of 1.5×10^4 cells/cm^2. Cells were maintained in NPM supplemented with 10 ng/ml PDGF/bFGF instead of EGF. Bipolar, oligodendrocyte progenitor cells were observed 24 hours after plating. At the Moment of treatment to induce oligodendrocyte progenitor differentiation, the media was changed to OPC differentiation media containing NPM with a 1:10 dilution of PDGF/FGF.
For myelin protein analyses, cells were grown on 100 mm culture plates and after exposure to small molecules or controls were washed twice with ice-cold PBS. RIPA lysis buffer was added to the plates and the cells were scraped, collected and disrupted with a homogenizer on ice. Cell homogenates were then centrifuged at 6,000×g, 10 min, 4° C. and supernatants separated in a fresh tube. After adding Laemli loading buffer, proteins were denaturized at 70° C. for 10 mm and loaded in gradient gels (4-20, Criterion, BioRad, Calif.). Electroforetically separated proteins were electro-transferred to nitrocellulose membranes in a semi-dry apparatus and unspecific bonds were blocked with IRdye blocking solution for at least 1 hr at RT. After washing twice with TBS-T, primary antibodies were added and incubated over night at 4° C. Membranes were incubated with secondary, IRdye-infrared conjugated antibodies for 1 hr at RT and visualized on the Odyssey scanner.
The primary screening to select positive compounds was performed at a standard concentration of 10 μM with cell morphology analysis 48 hrs after treatment. Dose response curves at 48 hrs treatment time were performed to determine the minimum concentration compounds A, A-7 and B needed to induce cell maturation. We assessed oligodendrocyte differentiation by cell morphology changes, green fluorescence in cells generated from or Plp-EGFP transgenic mouse, immunostaining for myelin proteins and western blot for expression of the oligodendrocyte markers PLP/DM20 and 2′,3′, cyclic nucleotide 3′ phosphohydrolase (CNPase). EC50 values were also calculated based on results of western blot for myelin proteins and subsequent band densitometry analysis. Additionally, we followed cell differentiation induced over long time exposure to compounds A and B (7 days, 0.1-10 μM).

[3] = Detection of small molecules in blood plasma and brain tissue by mass spectrometry; details: for blood plasma level, average / brain level, average: 4 mice; for blood plasma level, average / brain level, average / Biological sample concentration (nM), Brain / Biological sample concentration (nM), Plasma: 100 mg/kg i.p., two doses in 5 days; for crossing of the blood brain barrier: two I.P. doses in a five day-term
Method: The signal was optimized for each compound for positive or negative ionization by ESI (Electrospray ionization). A standard curve what made with pure compound solutions in DMSO up to 10 ng/ml. A MS2 scan was used to identify the progenitor ion and a product ion analysis was used to identify the best fragment for analysis and to optimize the collision energy. […] Samples were precipitated in 3 volumes of methanol with internal standard, centrifuged, and filtered. Filtered samples were analyzed by LC/MS/MS using either an Agilent 6410 mass spectrometer coupled with an Agilent 1200 HPLC and a CTC PAL chilled autosampler, all controlled by MassHunter software (Agilent), or an AB12000 mass spectrometer coupled with an Agilent 1100 HPLC and a CTC PAL chilled autosampler, all controlled by Analyst software (ABI). After separation on a C18 reverse phase HPLC column (Agilent, Waters, or equivalent) using an acetonitrile-water gradient system, peaks were analyzed by mass spectrometry (MS) using ESI ionization in MRM (Multiple Reaction Monitoring) mode.
4 mice per condition were injected i.p. (100 mg/kg), following the same experimental paradigm performed for the tissue analysis (two doses m a 5 days time).

[4] = test system: lysolecithin-demyelinated cerebellar explants; experiment: Myelin regeneration in lysolecithin-demyelinated cerebellar explants; format: cell-based, mouse; details: 1 μM, 10 additional days after lysolecithin
Method: Myelination-demyelination-remyelination studies in cerebella organotypic cultures were carried out. In brief, after careful dissection to keep the tissue intact, cerebella of postnatal day 4-7 wild type or Plp-EGFP mouse pups was sectioned at 400-μm thickness using a Leica VT1000S vibratome. Cerebella sections were then plated on insert plates and a few droplets of high-glucose media were added to cover the tissue during the first 6 hours to allow attachment of the slices to the insert plate surface. Media used was 50% DMEM/F12, 25% Hank's buffered salt solution (both from Gibco), 25% horse serum, 5 mg/ml glucose and a combination of streptomycin/penicillin (Gibco). When the slices were firmly attached, fresh media was added to cover the tissue and the cultures were maintained in this conditions during 4-10 days. To induce demyelination, 0.5 mg/ml lysolecithin (I′-monoacyl-L-3-glycerylphosphorylcholine, Sigma) was added to the culture media for 17 hrs. After this time, the culture media was changed and treatments were performed by adding small molecules or DMSO controls to the plates for 4-10 additional days. Demyelination-remyelination was assessed by green fluorescence (Plp-EGFP) or immunostaining for myelin-axonal proteins and visualization was performed by confocal microscopy.
Acute demyelination of cerebellum tissue explants has been previously used as a reliable methodology to study myelin formation and regeneration Taking advantage of our Pip-EGFP mouse, which allowed for the accurate tracking of oligodendrocyte cell behavior during myelination/demyelination/remyelination and the cerebellar explants methodology, we analyzed the effect of compounds A, A-7 and B or oligodendrocyte cells and myelin regeneration after demyeliantion of the cerebellar explants with lysolecithin. Cerebellum from postnatal day 7 mice pups (P7) was sectioned and maintained in culture (see methods). […]

[5] = 48 hrs, read-out: EC50 for CNPase expression (western blot)
[6] = 48 hrs, read-out: EC50 for PLP/DM20 expression (western blot)

| SMILES | cell toxicity and viability [1] | induction of PLP/DM20 and CNPase expression at low concentrations [2] | pEC50 [2, 5] | pEC50 [2, 6] | PLP/DM20 Expression (WB, % of Control) ([2]; Table 3, 10 μM, 48 hrs) | PLP/DM20 Expression (WB, % of Control) ([2]; Table 4, 1 μM) | PLP/DM20 Expression (WB, % of Control) ([2]; Table 4, 10 μM) | blood plasma level, average [3] [nM] | brain level, average [3] [nM] | Biological sample concentration (nM), Brain ([3]; Sample No. 1) [nM] | Biological sample concentration (nM), Plasma ([3]; Sample No. 1) [nM] | Biological sample concentration (nM), Brain ([3]; Sample No. 2) [nM] | Biological sample concentration (nM), Plasma ([3]; Sample No. 2) | Biological sample concentration (nM), Brain ([3]; Sample No. 3) [nM] | Biological sample concentration (nM), Brain ([3]; Sample No. 4) [nM] | Biological sample concentration (nM), Plasma ([3]; Sample No. 4) [nM] | crossing of the blood brain barrier [3] | oligodendrocyte cell recovery and myelin regeneration [4] | further results |
| --- | --- | --- | --- | --- | --- | --- | --- | --- | --- | --- | --- | --- | --- | --- | --- | --- | --- | --- | --- |
| CCS(=O)(=O)N1CCN(C(=O)COc2ccc(-c3ccccc3)cc2)CC1 [Compound A, 1-[(4-biphenylyloxy)acetyl]-4-(ethylsulfonyl)piperazine] | did not show significant detrimental effects | observed | 8.00 | 7.64 | 195 ± 25.8 n = 6; p <0.01 % of Control | 201.2 ± 49.4 % of Control | 195.1 % of Control and 195.1 ± 25.8 % of Control | 131.3 | 9.2 | 4.6 | 90 | 14.7 | 149 nM | 13.2 | 4.3 | 157 | effectively crossed the blood brain barrier | remarkable oligodendrocyte cell recovery; also recorded: evident oligodendrocyte cell recovery and myelin regeneration | low concentration at which increased expression of the major myelin proteins is already detectable ([2]; 48 hrs): 0.1 µM; Biological sample concentration (nM), Plasma ([3]; Sample No. 3): 129 nM |
| O=[N+]([O-])c1ccc(F)c(NS(=O)(=O)c2ccc(F)cc2)c1 [Compound B, 4-fluoro-N-(2-fluoro-5-nitrophenyl)benzenesulfonamide] | – | observed | 8.30 | 8.15 | – | – | – | – | – | – | – | – | – | – | – | – | – | remarkable oligodendrocyte cell recovery; also recorded: evident oligodendrocyte cell recovery and myelin regeneration | concentrations with toxic effect (induction of cell death) [1]: > 10000 nM; concentrations with toxic effect (MTT cell viability) ([1]; MTT): higher than 1 μM; oligodendrocyte cell differentiation at high doses compared with control cells ([2]; 10-50 μM): did not induce higher oligodendrocyte cell differentiation; concentrations with significant/effective induction of myelin protein expression (western blot densitometry) ([2]; 48 hrs): 0.01 to 1 µM |
| CC(C)N1CCN(C(=O)COc2ccc(-c3ccccc3)cc2)CC1 [Compound A-7, 1-(Biphenyl-4-yloxy)acetyl-4-isopropylpiperazine] | did not show significant detrimental effects | observed | 7.15 | 7.52 | 286.8 % of Control | 263.3 % of Control and 263.3 ± 25.2 % of Control | 286.8 ± 16.5 % of Control | 9.2 | 13.5 | 16.6 | 4.2 | 16.8 | 5.3 L nM | 4.21 | 6.2 | 3.6 | effectively crossed the blood brain barrier | remarkable oligodendrocyte cell recovery; also recorded: evident oligodendrocyte cell recovery and myelin regeneration | myelin protein PLP/DM20 expression compared to other compounds and controls [2]: dramatic up-regulation; reduction of the amount necessary to induce the same effect as 10 μM compound A [2]: 1-2 orders of magnitude; induction of PLP/DM20 expression relative to levels of the A treated cells ([2]; 10 μM): 147%; effect at 50 μM ([2]; 50 μM): slightly decreases; PLP/DM20 Expression (WB, % of Control) ([2]; Table 3, 10 μM, 48 hrs, listed as drawing 48): 286.8 ± 16.5 n = 6; p <0.01 % of Control |
